In patent publication US11957759B1, “Rapidly accelerated fibrosarcoma (RAF) degrading compounds and associated methods of use” (Arvinas Operations, Inc., priority 2022, dated 2024):

Key:
B-RAF V600E = biological target: T1, B-RAF V600E (Homo sapiens, UniProt P15056, V600E); experiment: Target protein degradation, assay C: T-Rex 293 cells, HA-BRAF_V600E, 384 well format; type: cell-based; settings: T-Rex 293 HA-BRAF_V600E cells, 24 hours, Examples 83-269; for DC50: Assay C; for Dmax: T-REx-293, Assay C
T1 construct: expressed in transfected cells; host or cells: T-Rex 293 cells (Invitrogen #R71007)
Procedure, shortened: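 After 24 h exposure to an 11-point 1:3 series (300 nM–5 pM, 0.5% DMSO), fixed T-Rex 293 cells carrying HA-BRAF V600E (induced with 1 ng/mL doxycycline) were stained anti-HA and imaged. DC50 and Dmax were derived from BRAF intensity relative to control, and cytotoxicity from nuclear counts.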

B-RAF G466V = biological target: T2, B-RAF G466V (Homo sapiens, UniProt P15056, G466V); experiment: Target protein degradation, assay D: T-Rex 293 cells, HA-BRAF_G466V, 384 well format; type: cell-based; settings: T-Rex 293 HA-BRAF_G466V cells, 24 hours, Examples 83-269; for DC50: Assay D; for Dmax: T-REx-293, Assay D
T2 construct: expressed in transfected cells; host or cells: T-Rex 293 cells (Invitrogen #R71007)
Procedure, shortened: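 Degradation measured by high-content imaging of anti-HA immunofluorescence in fixed T-Rex 293 cells carrying inducible HA-BRAF G466V (1 ng/mL doxycycline), after 24 h PROTAC exposure at 37 °C over 300 nM–5 pM (1:3, 11 points, 0.5% DMSO). Outputs DC50 and Dmax as % of control; nuclei counts against DMSO wells gauge toxicity.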

T1 sequence (P15056 whole entry V600E): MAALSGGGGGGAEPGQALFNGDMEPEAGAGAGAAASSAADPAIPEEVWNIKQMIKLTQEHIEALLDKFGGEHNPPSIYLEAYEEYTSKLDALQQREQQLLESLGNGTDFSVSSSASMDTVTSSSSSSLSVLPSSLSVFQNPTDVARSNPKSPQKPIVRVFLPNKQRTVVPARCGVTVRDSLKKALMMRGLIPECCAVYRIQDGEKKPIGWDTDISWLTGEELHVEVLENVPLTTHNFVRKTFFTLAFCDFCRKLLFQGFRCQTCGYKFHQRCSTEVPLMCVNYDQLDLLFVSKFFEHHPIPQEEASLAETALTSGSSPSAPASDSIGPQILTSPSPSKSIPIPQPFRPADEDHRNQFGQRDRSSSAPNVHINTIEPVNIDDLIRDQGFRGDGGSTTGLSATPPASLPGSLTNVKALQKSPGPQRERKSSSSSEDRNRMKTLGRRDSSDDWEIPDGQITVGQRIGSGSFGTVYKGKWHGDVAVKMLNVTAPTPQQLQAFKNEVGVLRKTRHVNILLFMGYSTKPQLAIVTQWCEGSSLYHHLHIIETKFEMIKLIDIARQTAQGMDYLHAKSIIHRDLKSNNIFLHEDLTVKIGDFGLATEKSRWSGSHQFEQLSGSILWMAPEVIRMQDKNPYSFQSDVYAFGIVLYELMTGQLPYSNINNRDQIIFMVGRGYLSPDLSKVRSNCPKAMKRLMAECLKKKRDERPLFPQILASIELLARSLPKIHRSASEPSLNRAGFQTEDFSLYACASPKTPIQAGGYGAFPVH
T2 sequence (P15056 whole entry G466V): as the sequence (P15056 whole entry V600E) above, with G466V, E600V counted along it

SMILES	DC50 (B-RAF V600E)	Dmax (B-RAF V600E)	DC50 (B-RAF G466V)	Dmax (B-RAF G466V)
CN(CC1CCN(c2ccc(-n3cnc4ccc(Oc5c(F)ccc(NS(=O)(=O)N6CC[C@@H](F)C6)c5C#N)cc4c3=O)cc2)CC1)[C@H]1C[C@@H](Oc2ccc3c(c2)CN([C@H]2CCC(=O)NC2=O)C3=O)C1 [Example 206, (3R)-N-{2-cyano-4-fluoro-3-[(3-{4-[4-({methyl[(1r,3r)-3-({2-[(3S)-2,6-dioxopiperidin-3-yl]-1-oxo-2,3-dihydro-1H-isoindol-5-yl}oxy)cyclobutyl]amino}methyl)piperidin-1-yl]phenyl}-4-oxo-3,4-dihydroquinazolin-6-yl)oxy]phenyl}-3-fluoropyrrolidine-1-sulfonamide]	50 to 500 nM	≥ 70%	1 to 10 nM	≤ 35%
N#Cc1c(NS(=O)(=O)N2CC[C@@H](F)C2)ccc(F)c1Oc1ccc2ncn(-c3ccc(C4CCCN(CC5CCN(c6ccc7c(c6)CN([C@H]6CCC(=O)NC6=O)C7=O)CC5)C4)cc3)c(=O)c2c1 (stereo partly drawn) [Example 207, (3R)-N-(2-cyano-3-{[3-(4-{1-[(1-{2-[(3S)-2,6-dioxopiperidin-3-yl]-1-oxo-2,3-dihydro-1H-isoindol-5-yl}piperidin-4-yl)methyl]piperidin-3-yl}phenyl)-4-oxo-3,4-dihydroquinazolin-6-yl]oxy}-4-fluorophenyl)-3-fluoropyrrolidine-1-sulfonamide]	50 to 500 nM	≥ 70%	1 to 10 nM	35 to 70%
N#Cc1c(NS(=O)(=O)N2CC[C@@H](F)C2)ccc(F)c1Oc1ccc2ncn(-c3ccc(C4CCN(CC5CCN(c6ccc7c(c6)CN([C@H]6CCC(=O)NC6=O)C7=O)CC5)C4)cc3)c(=O)c2c1 (stereo partly drawn) [Example 208, (3R)-N-(2-cyano-3-{[3-(4-{1-[(1-{2-[(3S)-2,6-dioxopiperidin-3-yl]-1-oxo-2,3-dihydro-1H-isoindol-5-yl}piperidin-4-yl)methyl]pyrrolidin-3-yl}phenyl)-4-oxo-3,4-dihydroquinazolin-6-yl]oxy}-4-fluorophenyl)-3-fluoropyrrolidine-1-sulfonamide]	5 to 50 nM	35 to 70%	1 to 10 nM	≤ 35%
Cc1c(NS(=O)(=O)N2CC[C@@H](F)C2)ccc(F)c1Oc1ccc2ncn(-c3ccc(N4CCN(CC5CCN(c6ccc7c(c6)CN(C6CCC(=O)NC6=O)C7=O)CC5)CC4)cc3)c(=O)c2c1 (stereo partly drawn) [Example 210, (3R)-N-{3-[(3-{4-[4-({1-[2-(2,6-dioxopiperidin-3-yl)-1-oxo-2,3-dihydro-1H-isoindol-5-yl]piperidin-4-yl}methyl)piperazin-1-yl]phenyl}-4-oxo-3,4-dihydroquinazolin-6-yl)oxy]-4-fluoro-2-methylphenyl}-3-fluoropyrrolidine-1-sulfonamide]	50 to 500 nM	35 to 70%	10 to 30 nM	35 to 70%
N#Cc1c(NS(=O)(=O)N2CC[C@@H](F)C2)ccc(F)c1Oc1ccc2ncn(-c3cccc(C4CCN(CC5CCN(c6ccc7c(c6)CN([C@H]6CCC(=O)NC6=O)C7=O)CC5)C4)c3)c(=O)c2c1 (stereo partly drawn) [Example 211, (3R)-N-(2-cyano-3-{[3-(3-{1-[(1-{2-[(3S)-2,6-dioxopiperidin-3-yl]-1-oxo-2,3-dihydro-1H-isoindol-5-yl}piperidin-4-yl)methyl]pyrrolidin-3-yl}phenyl)-4-oxo-3,4-dihydroquinazolin-6-yl]oxy}-4-fluorophenyl)-3-fluoropyrrolidine-1-sulfonamide]	50 to 500 nM	35 to 70%	1 to 10 nM	35 to 70%
C[C@H]1CN(CC2CCN(c3ccc4c(c3F)CN([C@H]3CCC(=O)NC3=O)C4=O)CC2)CCN1c1ccc(-n2cnc3ccc(Oc4c(F)ccc(NS(=O)(=O)N5CC[C@@H](F)C5)c4C#N)cc3c2=O)nc1 [Example 213, (3R)-N-{2-cyano-3-[(3-{5-[(2S)-4-[(1-{2-[(3S)-2,6-dioxopiperidin-3-yl]-4-fluoro-1-oxo-2,3-dihydro-1H-isoindol-5-yl}piperidin-4-yl)methyl]-2-methylpiperazin-1-yl]pyridin-2-yl}-4-oxo-3,4-dihydroquinazolin-6-yl)oxy]-4-fluorophenyl}-3-fluoropyrrolidine-1-sulfonamide]	50 to 500 nM	≤ 35%	1 to 10 nM	≤ 35%
C[C@H]1CN(CC2CCN(c3ccc4c(c3F)CN([C@@H]3CCC(=O)NC3=O)C4=O)CC2)CCN1c1ccc(-n2cnc3ccc(Oc4c(F)ccc(NS(=O)(=O)N5CC[C@@H](F)C5)c4C#N)cc3c2=O)nc1 [Example 214, (3R)-N-{2-cyano-3-[(3-{5-[(2S)-4-[(1-{2-[(3R)-2,6-dioxopiperidin-3-yl]-4-fluoro-1-oxo-2,3-dihydro-1H-isoindol-5-yl}piperidin-4-yl)methyl]-2-methylpiperazin-1-yl]pyridin-2-yl}-4-oxo-3,4-dihydroquinazolin-6-yl)oxy]-4-fluorophenyl}-3-fluoropyrrolidine-1-sulfonamide]	> 500 nM		10 to 30 nM	≤ 35%
N#Cc1c(NS(=O)(=O)N2CC[C@@H](F)C2)ccc(F)c1Oc1ccc2ncn(-c3ccc(N4CCC(CN5CC(c6ccc7c(c6)CN([C@H]6CCC(=O)NC6=O)C7=O)C5)CC4)cc3)c(=O)c2c1 [Example 215, (3R)-N-(2-cyano-3-{[3-(4-{4-[(3-{2-[(3S)-2,6-dioxopiperidin-3-yl]-1-oxo-2,3-dihydro-1H-isoindol-5-yl}azetidin-1-yl)methyl]piperidin-1-yl}phenyl)-4-oxo-3,4-dihydroquinazolin-6-yl]oxy}-4-fluorophenyl)-3-fluoropyrrolidine-1-sulfonamide]	50 to 500 nM	35 to 70%	1 to 10 nM	≤ 35%
N#Cc1c(NS(=O)(=O)N2CC[C@@H](F)C2)ccc(F)c1Oc1ccc2ncn(-c3ccc(N4CCC(CN5CC(c6ccc7c(c6)CN([C@@H]6CCC(=O)NC6=O)C7=O)C5)CC4)cc3)c(=O)c2c1 [Example 216]	50 to 500 nM	35 to 70%	1 to 10 nM	≤ 35%
N#Cc1c(NS(=O)(=O)N2CC[C@@H](F)C2)ccc(F)c1Oc1ccc2ncn(-c3ccc(N4CCC(CN5CCN(c6ccc7c(c6)CN([C@H]6CCC(=O)NC6=O)C7=O)CC5)C4)cc3)c(=O)c2c1 (stereo partly drawn) [Example 217, (3R)-N-(2-cyano-3-{[3-(4-{3-[(4-{2-[(3S)-2,6-dioxopiperidin-3-yl]-1-oxo-2,3-dihydro-1H-isoindol-5-yl}piperazin-1-yl)methyl]pyrrolidin-1-yl}phenyl)-4-oxo-3,4-dihydroquinazolin-6-yl]oxy}-4-fluorophenyl)-3-fluoropyrrolidine-1-sulfonamide]	50 to 500 nM	35 to 70%	1 to 10 nM	≤ 35%
Cn1c(=O)n(C2CCC(=O)NC2=O)c2cccc(N3CC(CN4CCN(c5ccc(-n6cnc7ccc(Oc8c(F)ccc(NS(=O)(=O)N9CC[C@@H](F)C9)c8C#N)cc7c6=O)cc5)CC4)C3)c21 (stereo partly drawn) [Example 218, (3R)-N-{2-cyano-3-[(3-{4-[4-({1-[1-(2,6-dioxopiperidin-3-yl)-3-methyl-2-oxo-2,3-dihydro-1H-1,3-benzodiazol-4-yl]azetidin-3-yl}methyl)piperazin-1-yl]phenyl}-4-oxo-3,4-dihydroquinazolin-6-yl)oxy]-4-fluorophenyl}-3-fluoropyrrolidine-1-sulfonamide]	50 to 500 nM	35 to 70%	1 to 10 nM	35 to 70%
